Type in all cases: biochemical, rice (Oryza sativa var. Kinmaze)
Assay [1] concerns the target T1, GST fusion S627I mutant ALS protein (Oryza sativa subsp. japonica, UniProt Q6K2E8, S627I).
T1 construct: an expression vector having the full-length wild type ALS cDNA incorporated into the Eco RI site of pGEX-2T; made in house; host or cells: E. coli JM109, pGEX 2T(ALS-S627I mutant); crude supernatant
The assay can be described thus: Herbicide sensitivity of ALS protein expressed in E. coli (crude enzyme solution), S627I. The conditions noted are these: for RS ratio: S627I mutant vs wild type. The method, then:
(§1) ALS activity resulting from the mutant ALS protein contained in the eluted fractions apportioned into each test tube for apportioning was measured as follows. A reaction solution to be used in a measurement reaction was prepared by mixing an eluted fraction to be measured with a solution comprising 20 mM sodium pyruvate, 0.5 mM TPP, 0.5 mM MgCl2, 10 μM FAD and 20 mM potassium phosphate buffer (pH 7.5). One ml of this reaction solution was used. After the eluted fraction to be measured was added, the measurement reaction was performed at 30° C. for 40 to 60 minutes. Then, the reaction was stopped by addition of 0.1 ml of 6N sulfuric acid (or 0.25 N sodium hydroxide).
(§2) After the reaction was stopped, the reaction solution was incubated at 60° C. for 10 minutes, thereby converting acetolactate contained in the reaction solution to acetoin.
(§3) Then, to quantify acetoin contained in the reaction solution, 1 ml of 0.5% (w/v) creatine and 1 ml of 5% (w/v) α-naphthol dissolved in 2.5 N sodium hydroxide was added to the reaction solution, followed by incubation at 37° C. for 10 minutes. Acetoin was then quantified by color comparison of the absorbance (at 525 nm) of the reaction solution, thereby evaluating ALS activity. In addition, since the reaction solution contained a small amount of sodium pyruvate, reaction time 0 was used as control.
(§4) E. coli transformed with pGEX-2T(ALS-wild) constructed in Example 3(5), E. coli transformed with pGEX-2T(ALS-W548L mutant) constructed in Example 5, E. coli transformed with pGEX-2T(ALS-S627I mutant) constructed in Example 5, E. coli transformed with pGEX-2T(ALS P171H mutant) constructed in Example 6, E. coli transformed with pGEX-2T(ALS R172S mutant) constructed in Example 6, E. coli transformed with pGEX-2T(ALS P171H, R172S mutant) constructed in Example 7, E. coli transformed with pGEX-2T(ALS-P171H, W548L mutant) constructed in Example 8, E. coli transformed with pGEX-2T(ALS-P171H, S627I mutant) constructed in Example 8, and E. coli transformed with pGEX-2T(ALS-P171H, W548L, S627I mutant) constructed in Example 9 were respectively shake-cultured (pre-culture) at 27° C. in 2 ml of LB liquid medium containing ampicillin. These types of E. coli were respectively cultured in 250 ml of LB liquid medium containing ampicillin using 1 ml of the pre-culture solution. After culturing overnight, 1 mM IPTG was added to the media, and then culturing was performed for a further 3 to 4 hours, so that the expression of GST fusion protein was induced. In addition, the cells were stored at −80° C. after washing.
(§5) Preparation and purification of ALS from E. coli were performed by the following method. First, the pellet of the transformant E. coli stored at −80° C. was suspended in ALS extraction buffer (potassium phosphate buffer (pH 7.5) containing 30% glycerol and 0.5 mM MgCl2). Specifically, 2.5 ml of the buffer was added to the pellet obtained from 50 ml of the culture solution. The suspension was subjected to ultrasonication (Heat Systems-Ultrasonics, Sonicator W-225R, micro chip, output control 8, interval of approximately 1 second, twice (40 seconds each)), and subjected to centrifugation at 15000×g, 4° C. for 20 minutes, thereby obtaining the supernatant as a crude enzyme solution.
(§6) Herbicide sensitivity of the wild type ALS protein and that of mutant ALS protein were examined using the 9 types of crude enzyme solutions obtained in Example 10. Herbicide sensitivity test was performed according to procedures almost the same as those in Example 2. However, in this example, reaction temperature was 37° C., reaction time was 30 minutes, and 10 mM valine was added to the reaction solution to inhibit ALS activity derived from E. coli. Further, three types of herbicides, bispyribac-sodium, pyrithiobac-sodium, and pyriminobac, were used as PC herbicides; chlorsulfuron was used as a sulfonylurea herbicide; and imazaquin was used as an imidazolinon herbicide. […]

Assay [2] deals with T2, GST fusion R172S mutant ALS protein (Oryza sativa subsp. japonica, UniProt Q6K2E8, R172S).
T2 construct: an expression vector having the full-length wild type ALS cDNA incorporated into the Eco RI site of pGEX-2T; made in house; host or cells: E. coli JM109, pGEX-2T(ALS R172S mutant); crude supernatant
T2 sequence (Q6K2E8 44-644 R172S): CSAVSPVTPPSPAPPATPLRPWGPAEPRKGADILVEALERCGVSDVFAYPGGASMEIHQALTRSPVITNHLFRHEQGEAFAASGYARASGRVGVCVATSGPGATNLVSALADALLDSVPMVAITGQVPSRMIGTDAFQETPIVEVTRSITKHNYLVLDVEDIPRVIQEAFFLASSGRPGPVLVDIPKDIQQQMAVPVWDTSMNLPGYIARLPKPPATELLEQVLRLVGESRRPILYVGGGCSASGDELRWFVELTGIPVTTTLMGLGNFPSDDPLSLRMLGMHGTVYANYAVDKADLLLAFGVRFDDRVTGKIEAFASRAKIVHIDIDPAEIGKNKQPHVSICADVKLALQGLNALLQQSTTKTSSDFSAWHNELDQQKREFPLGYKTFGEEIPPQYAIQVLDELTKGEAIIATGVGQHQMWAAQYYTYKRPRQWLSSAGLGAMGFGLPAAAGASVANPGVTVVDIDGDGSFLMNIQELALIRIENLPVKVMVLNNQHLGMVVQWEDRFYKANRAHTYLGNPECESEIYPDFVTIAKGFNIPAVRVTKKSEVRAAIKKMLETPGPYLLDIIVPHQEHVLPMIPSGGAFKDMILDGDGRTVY
Put plainly: Herbicide sensitivity of ALS protein expressed in E. coli (crude enzyme solution), R172S. The conditions noted are these: for RS ratio: R172S mutant vs wild type. The method, then: as §1, §2, §3, §4, §5, §6

Assay [3] addresses T3, GST fusion P171H/R172S mutant ALS protein (Oryza sativa subsp. japonica, UniProt Q6K2E8, P171H/R172S).
T3 construct: made in house; host or cells: E. coli JM109, pGEX-2T(ALS P171H, R172S mutant); crude supernatant
The assay can be described thus: Herbicide sensitivity of ALS protein expressed in E. coli (crude enzyme solution), P171H/R172S. The conditions noted are these: for RS ratio: P171H/R172S mutant vs wild type; for Predicted RS ratio: product of RS ratios of the 1-point mutants. As for the experimental part:
as §1, §2, §3, §4, §5, §6

The target in assay [4] is T4, GST fusion wild type ALS protein (Oryza sativa subsp. japonica, UniProt Q6K2E8).
T4 construct: an expression vector having the full-length wild type ALS cDNA incorporated into the Eco RI site of pGEX-2T; made in house; host or cells: E. coli JM109, pGEX-2T(ALS-wild); crude supernatant
T4 sequence (Q6K2E8 44-644): as the sequence (Q6K2E8 44-644 R172S) above, with S129R counted along it
Put plainly: Herbicide sensitivity of ALS protein expressed in E. coli (crude enzyme solution), wild type. As to conditions: 37° C., 30 minutes, 10 mM valine, read-out: I50. As for the experimental part:
as §1, §2
Then, to quantify acetoin contained in the reaction solution, 1 ml of 0.5% (w/v) creatine and 1 ml of 5% (w/v) α-naphthol dissolved in 2.5 N sodium hydroxide was added to the reaction solution, followed by incubation at 37° C. for 10 minutes. Acetoin was then quantified by color comparison of the absorbance (at 525 nm) of the reaction solution, thereby evaluating ALS activity. In addition, since the reaction solution contained a small amount of sodium pyruvate, reaction time 0 was used as control. […]

The target of assay [5] is T5, GST fusion P171H mutant ALS protein (Oryza sativa subsp. japonica, UniProt Q6K2E8, P171H).
T5 construct: an expression vector having the full-length wild type ALS cDNA incorporated into the Eco RI site of pGEX-2T; made in house; host or cells: E. coli JM109, pGEX-2T(ALS P171H mutant); crude supernatant
T5 sequence (Q6K2E8 44-644 P171H): as the sequence (Q6K2E8 44-644 R172S) above, with P128H, S129R counted along it
The assay can be described thus: Herbicide sensitivity of ALS protein expressed in E. coli (crude enzyme solution), P171H. As to conditions: for RS ratio: P171H mutant vs wild type. As for the experimental part: as §1, §2, §3, §4, §5, §6

The target in assay [6] is T6, GST fusion W548L mutant ALS protein (Oryza sativa subsp. japonica, UniProt Q6K2E8, W548L).
T6 construct: an expression vector having the full-length wild type ALS cDNA incorporated into the Eco RI site of pGEX-2T; made in house; host or cells: E. coli JM109, pGEX 2T(ALS-W548L mutant); crude supernatant
T6 sequence (Q6K2E8 44-644 W548L): as the sequence (Q6K2E8 44-644 R172S) above, with S129R, W505L counted along it
Put plainly: Herbicide sensitivity of ALS protein expressed in E. coli (crude enzyme solution), W548L. As to conditions: for RS ratio: W548L mutant vs wild type. As for the experimental part: as §1, §2, §3, §4, §5, §6

Assay [7] has as its target T7, GST fusion P171H/W548L mutant ALS protein (Oryza sativa subsp. japonica, UniProt Q6K2E8, P171H/W548L).
T7 construct: made in house; host or cells: E. coli, pGEX-2T(ALS-P171H, W548L mutant); crude supernatant
The assay can be described thus: Herbicide sensitivity of ALS protein expressed in E. coli (crude enzyme solution), P171H/W548L. The conditions noted are these: for RS ratio: P171H/W548L mutant vs wild type; for Predicted RS ratio: product of RS ratios of the 1-point mutants. As for the experimental part:
as §1, §2, §3, §4, §5, §6

The target of assay [8] is T8, GST fusion P171H/S627I mutant ALS protein (Oryza sativa subsp. japonica, UniProt Q6K2E8, P171H/S627I).
T8 construct: made in house; host or cells: E. coli, pGEX-2T(ALS-P171H, S627I mutant); crude supernatant
T8 sequence (Q6K2E8 44-644 P171H/S627I): as the sequence (Q6K2E8 44-644 R172S) above, with P128H, S129R, S584I counted along it
Put plainly: Herbicide sensitivity of ALS protein expressed in E. coli (crude enzyme solution), P171H/S627I. As to conditions: for RS ratio: P171H/S627I mutant vs wild type; for Predicted RS ratio: product of RS ratios of the 1-point mutants. The method, then:
as §1, §2, §3, §4, §5, §6

Like-named read-outs stand apart in the source and are kept apart here. Bounds are passed on as bounds.

We go through two compounds from US8030547B2, “Gene coding for acetolactate synthase” (priority 2002, dated 2011).

T1 sequence (Q6K2E8 44-644 S627I): as the sequence (Q6K2E8 44-644 R172S) above, with S129R, S584I counted along it
T7 sequence (Q6K2E8 44-644 P171H/W548L): as the sequence (Q6K2E8 44-644 R172S) above, with P128H, S129R, W505L counted along it
T3 sequence (Q6K2E8 44-644 P171H/R172S): as the sequence (Q6K2E8 44-644 R172S) above, with P128H counted along it

Turning to `CON=C(C)c1cccc(Oc2nc(OC)cc(OC)n2)c1C(=O)O` [pyriminobac], the RS ratio in assay [1] is 2800; in assay [2], 1.2; in assay [3], 5.1; in assay [5], 5; in assay [6], 4500; in assay [7], more than 13000. In addition, the RS ratio in assay [8] is on record as more than 13000. Moreover, the IC50 was found to be 22 µM in assay [1] (S627I mutant, 37° C., 30 minutes, 10 mM valine, read-out: I50); 0.0092 µM in assay [2] (R172S mutant, 37° C., 30 minutes, 10 mM valine, read-out: I50); 0.041 µM in assay [3] (P171H/R172S mutant, 37° C., 30 minutes, 10 mM valine, read-out: I50); 0.008 µM in assay [4]; 0.04 µM in assay [5] (P171H mutant, 37° C., 30 minutes, 10 mM valine, read-out: I50); 36 µM in assay [6] (W548L mutant, 37° C., 30 minutes, 10 mM valine, read-out: I50). For the same compound, the “RS ratio/ predicted RS ratio” value in assay [3] (P171H/R172S mutant) is recorded as 0.85; in assay [7] (P171H/W548L mutant) it was more than 0.57; in assay [8] (P171H/S627I mutant), more than 0.93. The entries for the “Predicted RS ratio” value in assay [3] (P171H/R172S mutant), in assay [7] (P171H/W548L mutant) and in assay [8] (P171H/S627I mutant) were 6, 23000 and 14000, respectively. Besides, the “inhibition % at the highest concentration among the concentrations tested” value in assay [7] (P171H/W548L mutant, in 100 μM) worked out at 11%; in assay [8] (P171H/S627I mutant, in 100 μM) it was 21%.

`COc1cc(OC)nc(Sc2cccc(Cl)c2C(=O)O)n1` [pyrithiobac-sodium]: the IC50 in assay [1] was determined as 2.2 µM; in assay [2], 0.011 µM; in assay [3], 0.14 µM; in assay [5], 0.037 µM; in assay [8] it was 9.4 µM. Moreover, the RS ratio is 200 in assay [1]; 1 in assay [2]; 13 in assay [3]; 3.4 in assay [5]; more than 9100 in assay [6]; more than 9100 in assay [7]. Further, the RS ratio in assay [8] is recorded as 850. In addition, the “RS ratio/ predicted RS ratio” value in assay [3] (P171H/R172S mutant) is listed as 3.8; in assay [8] (P171H/S627I mutant), 1.3. In addition, the “Predicted RS ratio” value in assay [3] (P171H/R172S mutant) was 3.4; in assay [7] (P171H/W548L mutant), more than 31000; in assay [8] (P171H/S627I mutant), 680. Also, the inhibition at 100 µM in assay [6] (read-out: inhibition % at the highest concentration among the concentrations tested, W548L mutant, in 100 μM) came to 41%; in assay [7] (read-out: inhibition % at the highest concentration among the concentrations tested, P171H/W548L mutant, in 100 μM) it was 20%.
